Reference: patent US10597380B2, “Pyridazinone-based broad spectrum anti-influenza inhibitors” (Hoffmann-La Roche Inc., priority 2017, dated 2020)

Test system: Influenza A/WSN/33-Luciferase virus
Assay: microbe, parasite or virus in culture
Type: cell-based
Settings: A549, 72 h, luciferase signal three days later, read-out: IC50 antiviral activity (Luciferase reporter assay)

| Compound | IC50 |
| --- | --- |
| O=C(Cn1cccc(Nc2nn(-c3ccc(OC(F)(F)F)cc3)c(=O)c3c2CCC3)c1=O)N1CCNCC1 [Example 167, 1-[[2-Oxo-1-(2-oxo-2-piperazin-1-yl-ethyl)-3-pyridyl]amino]-3-[4-(trifluoromethoxy)phenyl]-6,7-dihydro-5H-cyclopenta[d]pyridazin-4-one] | 148 nM |
| Cn1cccc(Nc2nn(-c3ccc(OC(F)(F)F)cc3)c(=O)c3c2CN(S(C)(=O)=O)CC3)c1=O [Example 157, 4-[(1-Methyl-2-oxo-3-pyridyl)amino]-6-methylsulfonyl-2-[4-(trifluoromethoxy)phenyl]-7,8-dihydro-5H-pyrido[3,4-d]pyridazin-1-one] | 167 nM |
| CNC(=O)CCCn1cccc(Nc2nn(-c3ccc(OC(F)(F)F)cc3)c(=O)c3c2CCC3)c1=O [Example 105, N-methyl-4-[2-oxo-3-[[4-oxo-3-[4-(trifluoromethoxy)phenyl]-6,7-dihydro-5H-cyclopenta[d]pyridazin-1-yl]amino]-1-pyridyl]butanamide] | 15 nM |
| Cn1cccc(Nc2nn(-c3ccc(C(F)(F)F)cc3F)c(=O)c3c2CCC3)c1=O [Example 54, 3-[2-fluoro-4-(trifluoromethyl)phenyl]-1-[(1-methyl-2-oxo-3-pyridyl)amino]-6,7-dihydro-5H-cyclopenta[d]pyridazin-4-one] | 52 nM |
| Cn1cccc(Nc2nn(-c3ccc(C(C)(C)C)nc3)c(=O)c3c2CCC3)c1=O [Example 58, 3-(6-tert-butyl-3-pyridyl)-1-[(1-methyl-2-oxo-3-pyridyl)amino]-6,7-dihydro-5H-cyclopenta[d]pyridazin-4-one] | 17 nM |
| CC(C)(C)c1ccc(-n2nc(Nc3ccc[nH]c3=O)c3ccccc3c2=O)cc1 [Example 15, 2-(4-tert-butylphenyl)-4-[(2-oxo-1H-pyridin-3-yl)amino]phthalazin-1-one] | 132 nM |
| O=c1c(Nc2nn(-c3ccc(OC(F)(F)F)cc3)c(=O)c3c2CCC3)cccn1CC1COCCN1 (stereo not shown) [Example 127, 1-[[1-(morpholin-3-ylmethyl)-2-oxo-3-pyridyl]amino]-3-[4-(trifluoromethoxy)phenyl]-6,7-dihydro-5H-cyclopenta[d]pyridazin-4-one] | 33 nM |
| O=C(O)CCn1cccc(Nc2nn(-c3ccc(OC(F)(F)F)cc3)c(=O)c3ccccc23)c1=O [Example 109, 3-[2-Oxo-3-[[4-oxo-3-[4-(trifluoromethoxy)phenyl]phthalazin-1-yl]amino]-1-pyridyl]propanoic acid] | 842 nM |
| O=C(O)C1CCN(CCn2cccc(Nc3nn(-c4ccc(OC(F)(F)F)cc4)c(=O)c4c3CCC4)c2=O)C1 (stereo not shown) [Example 120, 1-[2-[2-oxo-3-[[4-oxo-3-[4-(trifluoromethoxy)phenyl]-6,7-dihydro-5H-cyclopenta[d]pyridazin-1-yl]amino]-1-pyridyl]ethyl]pyrrolidine-3-carboxylic acid] | 1120 nM |
| O=c1c(Nc2nn(-c3ccc(OC(F)(F)F)cc3)c(=O)c3c2CCC3)cccn1CCCN1CCOCC1 [Example 44, 1-[[1-(3-morpholinopropyl)-2-oxo-3-pyridyl]amino]-3-[4-(trifluoromethoxy)phenyl]-6,7-dihydro-5H-cyclopenta[d]pyridazin-4-one] | 28 nM |
| COCCn1cccc(Nc2nn(-c3ccc(OC(F)(F)F)cc3)c(=O)c3ccccc23)c1=O [Example 71, 4-[[1-(2-methoxyethyl)-2-oxo-3-pyridyl]amino]-2-[4-(trifluoromethoxy)phenyl]phthalazin-1-one] | 54 nM |
| C=Cc1ccc2c(Nc3cccn(C)c3=O)nn(-c3ccc(OC(F)(F)F)cc3)c(=O)c2c1 [Example 84, 4-[(1-methyl-2-oxo-3-pyridyl)amino]-2-[4-(trifluoromethoxy)phenyl]-7-vinyl-phthalazin-1-one] | 176 nM |
| CCN(CC)CCn1cncc(Nc2nn(-c3ccc(OC(F)(F)F)cc3)c(=O)c3c2CCC3)c1=O [Example 51, 1-[[1-[2-(diethylamino)ethyl]-6-oxo-pyrimidin-5-yl]amino]-3-[4-(trifluoromethoxy)phenyl]-6,7-dihydro-5H-cyclopenta[d]pyridazin-4-one] | 44 nM |
| COC(=O)CCCn1cc(Cl)cc(Nc2nn(-c3ccc(OC(F)(F)F)cc3)c(=O)c3c2CCC3)c1=O [Example 37, methyl 4-[5-chloro-2-oxo-3-[[4-oxo-3-[4-(trifluoromethoxy)phenyl]-6,7-dihydro-5H-cyclopenta[d]pyridazin-1-yl]amino]-1-pyridyl]butanoate] | 20 nM |
| Cn1cccc(Nc2nn(-c3cnc(C(C)(C)C)nc3)c(=O)c3ccccc23)c1=O [Example 9, 2-(2-tert-butylpyrimidin-5-yl)-4-[(1-methyl-2-oxo-3-pyridyl)amino]phthalazin-1-one] | 275 nM |
| CC(C)(C)OC(=O)N(CCn1cccc(Nc2nn(-c3ccc(OC(F)(F)F)cc3)c(=O)c3c2CCC3)c1=O)CC(=O)O [Example 43, 2-[tert-butoxycarbonyl-[2-[2-oxo-3-[[4-oxo-3-[4-(trifluoromethoxy)phenyl]-6,7-dihydro-5H-cyclopenta[d]pyridazin-1-yl]amino]-1-pyridyl]ethyl]amino]acetic acid] | 84 nM |

| Compound | IC50 |
| --- | --- |
| Cn1cccc(Nc2nn(-c3ccc(OC(F)(F)F)cc3)c(=O)c3c2CCC(O)C3)c1=O (stereo not shown) [Example 164, 7-Hydroxy-4-[(1-methyl-2-oxo-3-pyridyl)amino]-2-[4-(trifluoromethoxy)phenyl]-5,6,7,8-tetrahydrophthalazin-1-one] | 46 nM |
| O=C(O)CNCCn1cccc(Nc2nn(-c3ccc(OC(F)(F)F)cc3)c(=O)c3c2CCC3)c1=O [Example 129, 2-[2-[2-Oxo-3-[[4-oxo-3-[4-(trifluoromethoxy)phenyl]-6,7-dihydro-5H-cyclopenta[d]pyridazin-1-yl]amino]-1-pyridyl]ethylamino]acetic acid] | 79 nM |
| Cn1cncc(Nc2nn(-c3ccc(OC(F)(F)F)cc3)c(=O)c3c2CCC3)c1=O [Example 30, 1-[(1-methyl-6-oxo-pyrimidin-5-yl)amino]-3-[4-(trifluoromethoxy)phenyl]-6,7-dihydro-5H-cyclopenta[d]pyridazin-4-one] | 37 nM |
| O=C(O)CCCn1cc(Cl)cc(Nc2nn(-c3ccc(OC(F)(F)F)cc3)c(=O)c3c2CCC3)c1=O [Example 117, 4-[5-chloro-2-oxo-3-[[4-oxo-3-[4-(trifluoromethoxy)phenyl]-6,7-dihydro-5H-cyclopenta[d]pyridazin-1-yl]amino]-1-pyridyl]butanoic acid] | 114 nM |
| O=c1[nH]cccc1Nc1nn(-c2ccc(OC(F)(F)F)cc2)c(=O)c2ccccc12 [Example 2, 4-[(2-oxo-1H-pyridin-3-yl)amino]-2-[4-(trifluoromethoxy)phenyl]phthalazin-1-one] | 54 nM |
| CN(C)S(=O)(=O)CCCn1cccc(Nc2nn(-c3ccc(OC(F)(F)F)cc3)c(=O)c3ccccc23)c1=O [Example 75, N,N-dimethyl-3-[2-oxo-3-[[4-oxo-3-[4-(trifluoromethoxy)phenyl]phthalazin-1-yl]amino]-1-pyridyl]propane-1-sulfonamide] | 25 nM |
| COCCOc1cccc2c(=O)n(-c3ccc(OC(F)(F)F)cc3)nc(Nc3cccn(C)c3=O)c12 [Example 138, 5-(2-Methoxyethoxy)-4-[(1-methyl-2-oxo-3-pyridyl)amino]-2-[4-(trifluoromethoxy)phenyl]phthalazin-1-one] | 110 nM |
| CC(O)c1ccc2c(Nc3cccn(C)c3=O)nn(-c3ccc(OC(F)(F)F)cc3)c(=O)c2c1 (stereo not shown) [Example 140, 7-(1-Hydroxyethyl)-4-[(1-methyl-2-oxo-3-pyridyl)amino]-2-[4-(trifluoromethoxy)phenyl]phthalazin-1-one] | 32 nM |
| O=C(O)C1CCCN1CCn1cccc(Nc2nn(-c3ccc(OC(F)(F)F)cc3)c(=O)c3ccccc23)c1=O (stereo not shown) [Example 114, 1-[2-[2-oxo-3-[[4-oxo-3-[4-(trifluoromethoxy)phenyl]phthalazin-1-yl]amino]-1-pyridyl]ethyl]pyrrolidine-2-carboxylic acid] | 110 nM |
| CN(C)Cc1ccc2c(Nc3cccn(C)c3=O)nn(-c3ccc(OC(F)(F)F)cc3)c(=O)c2c1 [Example 144, 7-[(Dimethylamino)methyl]-4-[(1-methyl-2-oxo-3-pyridyl)amino]-2-[4-(trifluoromethoxy)phenyl]phthalazin-1-one] | 625 nM |
| Cn1cccc(Nc2nn(-c3ccc(OC(F)(F)F)cc3)c(=O)c3c(F)cccc23)c1=O [Example 17, 8-fluoro-4-[(1-methyl-2-oxo-3-pyridyl)amino]-2-[4-(trifluoromethoxy)phenyl]phthalazin-1-one] | 100 nM |
| CCc1ccc2c(Nc3cccn(C)c3=O)nn(-c3ccc(OC(F)(F)F)cc3)c(=O)c2c1 [Example 82, 7-ethyl-4-[(1-methyl-2-oxo-3-pyridyl)amino]-2-[4-(trifluoromethoxy)phenyl]phthalazin-1-one] | 79 nM |
| Cn1cccc(Nc2nn(-c3ccc(OC(F)(F)F)cc3)c(=O)c3c2CCC3)c1=O [Example 28, 1-[(1-methyl-2-oxo-3-pyridyl)amino]-3-[4-(trifluoromethoxy)phenyl]-6,7-dihydro-5H-cyclopenta[d]pyridazin-4-one] | 8 nM |
| O=c1c(Nc2nn(-c3ccc(OC(F)(F)F)cc3)c(=O)c3ccccc23)cccn1CCN1CC(O)(C(F)(F)F)C1 [Example 77, 4-[[1-[2-[3-hydroxy-3-(trifluoromethyl)azetidin-1-yl]ethyl]-2-oxo-3-pyridyl]amino]-2-[4-(trifluoromethoxy)phenyl]phthalazin-1-one] | 108 nM |
| Cc1ccc(Nc2nn(-c3ccc(OC(F)(F)F)cc3)c(=O)c3ccccc23)c(=O)[nH]1 [Example 68, 4-[(6-methyl-2-oxo-1H-pyridin-3-yl)amino]-2-[4-(trifluoromethoxy)phenyl]phthalazin-1-one] | 1710 nM |
